Literature values in US20260284040A1, “COMBINATION OF A PARP1 INHIBITOR AND A SELECTIVE ESTROGEN DEGRADER FOR TREATING CANCER” (ASTRAZENECA AB, priority 2023, published 2026).

How the values were obtained:
[1] = tested on: human bone marrow progenitor cells; conditions: in vitro
[2] = tested on: ER+ cell lines and PDX models; conditions: wide range of ER+ cell lines and PDX models, including ESR1m models
[3] = in vivo

Structure (SMILES): CCc1cc2ncc(CN3CCN(c4ccc(C(=O)NC)nc4)CC3)cc2[nH]c1=O [AZD5305, 5-{4-[(7-ethyl-6-oxo-5,6-dihydro-1,5-naphthyridin-3-yl)methyl]piperazin-1-yl}-N-methylpyridine-2-carboxamide]
- Effects on human bone marrow progenitor cells [1]: reduced effects

Structure (SMILES): C[C@@H]1Cc2c(ccc3[nH]ncc23)[C@@H](c2ccc(NC3CN(CCCF)C3)cn2)N1CC(F)(F)F [Camizestrant, N-[1-(3-fluoropropyl)azetidin-3-yl]-6-[(6S,8R)-8-methyl-7-(2,2,2-trifluoroethyl)-6,7,8,9-tetrahydro-3H-pyrazolo[4,3-]isoquinolin-6-yl]-pyridin-3-amine]
- Antitumour activities [2]: demonstrated antitumour activities
- Oral bioavailability [3]: orally bioavailable

Structure (SMILES): C[C@]12CC[C@@H]3c4ccc(O)cc4C[C@@H](CCCCCCCCC[S+]([O-])CCCC(F)(F)C(F)(F)F)[C@H]3[C@@H]1CC[C@@H]2O (stereo partly shown) [fulvestrant]
- Oral bioavailability [3]: not orally bioavailable
